# Reference: patent US10703757B2, “Compounds and methods for CDK8 modulation and indications therefor” (Plexxikon Inc., priority 2016, dated 2020)
# Test system: CDK8 (phosphorylation of STAT1 at serine 727 in A549 cells)
# Experiment: Cell based Phospho-STAT1 assay (IFNγ-stimulated A549 cells, AlphaLISA)
# Conditions: Homo sapiens, A549, A549 cells, phospho-STAT1 after IFNγ stimulation
# Description: Determine Inhibitor Activity Against CDK8 in Cell Based Phospho-STAT1 Assay
# This assay measures the phosphorylation of the CDK8 substrate STAT1 following Interferon-gamma (IFNγ) stimulation^1. The lung carcinoma cell line A549 is seeded in a 96 well plate in 50 μL of culture media at 5×10^4 cells/well and incubated at 37° C. overnight. Serial dilutions of compounds (in total volume of 50 μL culture media) are added to the cells and incubated at 37° C. for one hour. Human IFNγ (R&D Systems) is added to the cells at a 10 ng/mL final concentration. 4 wells containing DMSO treated cells stimulated with IFNγ serve as high controls and 4 wells containing DMSO treated unstimulated cells serve as low controls. After 30 minute IFNγ stimulation at 37° C., the culture media is removed and 50 μL of 1×AlphaLISA lysis buffer (PerkinElmer GA, USA) is added to each well. 5 μL cell lysate is transferred to a 384 well AlphaPlate (PerkinElmer GA, USA) and 5 μL containing 0.156 nM Phospho-STAT1 (Ser727) rabbit monoclonal antibody (Cell Signaling Technology), 0.156 nM Mouse Anti-STAT1 antibody (BD Transduction Laboratories), and 10 μg/mL Anti-rabbit IgG AlphaLISA acceptor beads (PerkinElmer GA, USA) diluted in 1× AlphaLISA immunoassay buffer (PerkinElmer GA, USA) is added to the cell lysates and incubated at room temperature for 90 minutes. 5 μL Anti-Mouse IgG Alpha donor beads diluted in 1× AlphaLISA immunoassay buffer (PerkinElmer GA, USA) is added to the reaction mixture and incubated at room temperature for 90 minutes. Upon excitation of these beads with laser light at 680 nm, singlet oxygen is produced. This singlet oxygen is rapidly quenched, unless the AlphaLISA Anti-Rabbit IgG acceptor beads are in close proximity, in which case a proximity signal can be measured at […]. In the presence of cellular CDK8 catalytic activity, there is a very strong proximity signal. Selective CDK8 inhibitors affect a decrease in this proximity signal through a decrease in phosphorylation of STAT1 at serine 727. The percentage inhibition at individual concentrations relative to high and low controls is calculated. The data are analyzed by using nonlinear regression to generate IC50 values.
row,IC50 [nM],Compound
1,1000 to 10000,"Cn1cc(-c2ccc(-c3cnc4cccc(N5CCOCC5)n34)cc2)cn1 [Compound P-0395, 4-(3-(4-(1-methyl-1H-pyrazol-4-yl)phenyl)imidazo[1,2-a]pyridin-5-yl)morpholine]"
2,0.1 to 100,"Cn1cc(-c2ccc(-c3cnc4cccc(N5CCC6(CCNC6=O)CC5)n34)cc2)cn1 [Compound P-0450, 8-(3-(4-(1-methyl-1H-pyrazol-4-yl)phenyl)imidazo[1,2-a]pyridin-5-yl)-2,8-diazaspiro[4.5]decan-1-one]"
3,100 to 1000,"Cn1cc(-c2ccc(-c3cnc4cccc(NCC5CCOCC5)n34)cc2)cn1 [Compound P-0391, 3-(4-(1-methyl-1H-pyrazol-4-yl)phenyl)-N-((tetrahydro-2H-pyran-4-yl)methyl)imidazo[1,2-a]pyridin-5-amine]"
4,100 to 1000,"Cn1cc(-c2ccc(-c3cnc4cccc(C5=CCN(S(C)(=O)=O)CC5)n34)cc2)cn1 [Compound P-0419, 3-(4-(1-methyl-1H-pyrazol-4-yl)phenyl)-5-(1-(methylsulfonyl)-1,2,3,6-tetrahydropyridin-4-yl)imidazo[1,2-a]pyridine]"
5,1000 to 10000,"N#CC1CCN(c2cccc3ncc(-c4ccc(CNC(=O)c5cccnc5)cc4)n23)CC1 [Compound P-0448, N-(4-(5-(4-cyanopiperidin-1-yl)imidazo[1,2-a]pyridin-3-yl)benzyl)nicotinamide]"
6,1000 to 10000,"CCOC(=O)C1CC=C(c2cccc3ncc(-c4ccc(-c5cnn(C)c5)cc4)n23)CC1 (stereo not drawn) [Compound P-0420, ethyl 4-(3-(4-(1-methyl-1H-pyrazol-4-yl)phenyl)imidazo[1,2-a]pyridin-5-yl)cyclohex-3-ene-1-carboxylate]"
7,100 to 1000,"Cn1cc(C#Cc2cccn3ncc(-c4ccc(-c5cnn(C)c5)cc4)c23)cn1 [Compound P-0428, 4-((1-methyl-1H-pyrazol-4-yl)ethynyl)-3-(4-(1-methyl-1H-pyrazol-4-yl)phenyl)pyrazolo[1,5-a]pyridine]"
8,0.1 to 100,"Cn1cc(-c2ccc(-c3cnc4cccc(N5CCC(C)(C#N)CC5)n34)cc2)cn1 [Compound P-0401, 4-methyl-1-(3-(4-(1-methyl-1H-pyrazol-4-yl)phenyl)imidazo[1,2-a]pyridin-5-yl)piperidine-4-carbonitrile]"
9,1000 to 10000,"Cc1nn(C)c(C)c1-c1ccc(-c2cnn3cccc(C#CC(C)(C)O)c23)cc1 [Compound P-0236, 2-methyl-4-(3-(4-(1,3,5-trimethyl-1H-pyrazol-4-yl)phenyl)pyrazolo[1,5-a]pyridin-4-yl)but-3-yn-2-ol]"
10,100 to 1000,"CC(C)(O)C#Cc1cccn2ncc(-c3ccc(NS(=O)(=O)C4CC4)cc3)c12 [Compound P-0412, N-(4-(4-(3-hydroxy-3-methylbut-1-yn-1-yl)pyrazolo[1,5-a]pyridin-3-yl)phenyl)cyclopropane-sulfonamide]"
11,100 to 1000,"Cn1cc(C#Cc2cnc3cccc(N4CCC(C#N)CC4)n23)cn1 [Compound P-0409, 1-(3-((1-methyl-1H-pyrazol-4-yl)ethynyl)imidazo[1,2-a]pyridin-5-yl)piperidine-4-carbonitrile]"
12,1000 to 10000,"Cn1cc(-c2ccc(-c3cnc4cccc(NCc5ccccc5)n34)cc2)cn1 [Compound P-0389, N-benzyl-3-(4-(1-methyl-1H-pyrazol-4-yl)phenyl)imidazo[1,2-a]pyridin-5-amine]"
13,0.1 to 100,"Cn1cc(C#Cc2cnc3cccc(C4=CCC(C#N)CC4)n23)cn1 (stereo not drawn) [Compound P-0374, 4-(3-((1-methyl-1H-pyrazol-4-yl)ethynyl)imidazo[1,2-a]pyridin-5-yl)cyclohex-3-ene-1-carbonitrile]"
14,100 to 1000,"CC(C)(C#N)COc1cccc2ncc(-c3ccc(-c4cnn(C(F)F)c4)cc3)n12 [Compound P-0355, 3-((3-(4-(1-(difluoromethyl)-1H-pyrazol-4-yl)phenyl)imidazo[1,2-a]pyridin-5-yl)oxy)-2,2-dimethylpropanenitrile]"
15,1000 to 10000,"Cn1cc(-c2ccc(-c3cnc4cccc(N5CCN(c6nccs6)CC5)n34)cc2)cn1 [Compound P-0383, 2-(4-(3-(4-(1-methyl-1H-pyrazol-4-yl)phenyl)imidazo[1,2-a]pyridin-5-yl)piperazin-1-yl)thiazole]"
16,100 to 1000,"Cn1cc(-c2ccc(-c3cnc4cccc(OC5CCOCC5)n34)cc2)cn1 [Compound P-0427, 3-(4-(1-methyl-1H-pyrazol-4-yl)phenyl)-5-((tetrahydro-2H-pyran-4-yl)oxy)imidazo[1,2-a]pyridine]"
17,1000 to 10000,"Cn1cc(-c2ccc(-c3cnc4cccc(N5CCN(c6ccccn6)CC5)n34)cc2)cn1 [Compound P-0385, 3-(4-(1-methyl-1H-pyrazol-4-yl)phenyl)-5-(4-(pyridin-2-yl)piperazin-1-yl)imidazo[1,2-a]pyridine]"
18,1000 to 10000,"NC(=O)C1CC=C(c2cccc3ncc(-c4ccc(OCCN5CCCCC5)cc4)n23)CC1 (stereo not drawn) [Compound P-0369, 4-(3-(4-(2-(piperidin-1-yl)ethoxy)phenyl)imidazo[1,2-a]pyridin-5-yl)cyclohex-3-ene-1-carboxamide]"
19,100 to 1000,"Cn1cc(-c2ccc(-c3cnc4cccc(N5CCC(C)(O)CC5)n34)cc2)cn1 [Compound P-0396, 4-methyl-1-(3-(4-(1-methyl-1H-pyrazol-4-yl)phenyl)imidazo[1,2-a]pyridin-5-yl)piperidin-4-ol]"
20,0.1 to 100,"Cn1ncc2ccc(-c3cnc4[nH]ccc4c3C3=CCC(C#N)CC3)cc21 (stereo not drawn) [Compound P-0340, 4-(5-(1-methyl-1H-indazol-6-yl)-1H-pyrrolo[2,3-b]pyridin-4-yl)cyclohex-3-ene-1-carbonitrile]"
21,0.1 to 100,"Cn1ncc2cc(-c3cnc4[nH]ccc4c3N3CCC(C#N)CC3)ccc21 [Compound P-0357, 1-[5-(1-methylindazol-5-yl)-1H-pyrrolo[2,3-b]pyridin-4-yl]piperidine-4-carbonitrile]"
22,0.1 to 100,"Cn1ncc2cc(-c3cnn4cccc(N5CCC(C#N)CC5)c34)ccc21 [Compound P-0405, 1-(3-(1-methyl-1H-indazol-5-yl)pyrazolo[1,5-a]pyridin-4-yl)piperidine-4-carbonitrile]"
23,0.1 to 100,"CN1CCN(C(=O)c2ccc3cc(-c4cnn5cccc(C6=CCC(C#N)CC6)c45)ccc3c2)CC1 (stereo not drawn) [Compound P-0356, 4-(3-(6-(4-methylpiperazine-1-carbonyl)naphthalen-2-yl)pyrazolo[1,5-a]pyridin-4-yl)cyclohex-3-ene-1-carbonitrile]"
24,0.1 to 100,"Cn1cc(-c2ccc(-c3cnc4cccc(N5CCC(C#N)(c6ccccc6)CC5)n34)cc2)cn1 [Compound P-0451, 1-(3-(4-(1-methyl-1H-pyrazol-4-yl)phenyl)imidazo[1,2-a]pyridin-5-yl)-4-phenylpiperidine-4-carbonitrile]"
25,0.1 to 100,"N#CC1CCN(c2cccc3ncc(-c4ccc(-c5cnn(C(F)F)c5)cc4)n23)CC1 [Compound P-0440, 1-(3-(4-(1-(difluoromethyl)-1H-pyrazol-4-yl)phenyl)imidazo[1,2-a]pyridin-5-yl)piperidine-4-carbonitrile]"
26,100 to 1000,"N#CC1CCN(c2c(-c3ccc4c(c3)OC(F)(F)O4)cnc3[nH]ccc23)CC1 [Compound P-0334, 1-(5-(2,2-difluorobenzo[d][1,3]dioxol-5-yl)-1H-pyrrolo[2,3-b]pyridin-4-yl)piperidine-4-carbonitrile]"
27,100 to 1000,"Cn1ncc2cc(-c3cnc4[nH]ccc4c3C#CC(C)(C)O)ccc21 [Compound P-0343, 2-methyl-4-(5-(1-methyl-1H-indazol-5-yl)-1H-pyrrolo[2,3-b]pyridin-4-yl)but-3-yn-2-ol]"
